Assay results from patent publication EP4703362A1 (Chengdu Sibeibo Pharmaceutical Technology Co., Ltd, priority 2023, dated 2024).
Like-named read-outs stand apart in the source and are kept apart here.

Legend:
[1] = stability test in liver microsomes (rat); format: in vitro ADME
Method: (§1) The stability of the compound of the present invention in liver microsomes of rat, monkey and human was determined. Tested compounds of the present invention were the compounds in Examples 6, 8 and 29, and a control drug was Zavegepant.
(§2) 3.2 An appropriate amount of liver microsome solution was transferred into a 1 mL 96-deep-well plate, added with a tested drug liquid (or a probe substrate solution), and pre-incubated in a thermal mixer at 37°C for 5 minutes. Two parts of mixed solutions were taken out from the system and added with 1×PBS to replace NADPH, and the mixed solutions were taken out at 0 and 60 minutes respectively, and added with methanol (containing an internal standard) to terminate the reaction. In the remaining mixed system, each well was added with NADPH to start the reaction. In the tested substance group, mixed solutions were taken out from the system at 0, 5, 15, 30, 45 and 60 minutes, and in the control group, mixed solutions were taken out from the system at 0, 30 and 60 minutes, and the mixed solutions were added methanol (containing an internal standard) to terminate the reaction. All samples of the terminated reaction were mixed evenly and centrifuged in a centrifuge at 3800 rpm for 15 minutes, and the supernatant was taken for LC-MS/MS analysis.
(§3) A peak area was determined by an extracted ion chromatogram. A slope value k was determined by linear regression of a remaining percentage of a parent drug relative to a natural logarithm of an incubation time curve. According to the slope, in-vitro half-life periods (t1/2) were respectively calculated, and in-vitro intrinsic clearance rates (CLint, represented by µL/min/mg protein) were calculated. Calculation formulas were as follows: t1/2 = ln2/k = 0.693/k; and CLint = 0.693/t1/2 /liver microsome protein concentration [formula]

[2] = stability test in liver microsomes (monkey); format: in vitro ADME
Method: as §1, §2, §3

[3] = stability test in liver microsomes (human); format: in vitro ADME
Method: as §1, §2, §3

[4] = plasma protein binding rate test, equilibrium dialysis (rat); format: in vitro ADME, SD rat; conditions: 1 µM, 6 hours, 37°C
Method: (§4) Protein binding rates of the compound of the present invention in plasma of rat, monkey and human were determined by an equilibrium dialysis method. Tested compounds of the present invention were the compounds in Examples 6, 8 and 29, and a control drug was Zavegepant.
(§5) 3.1 A dry dialysis membrane was rinsed with ultrapure water for 2-3 times, and then soaked in a phosphate buffer for 1 hour for later use. Polytetrafluoroethylene module was soaked in 20% ethanol for 30 minutes, and then surface moisture was dried with dust-free paper for later use. The pretreated dialysis membrane was assembled into a dialysis plate according to the product specification, and one side (receptor compartment) of an osmotic membrane in each dialysis well was added with 100 µL of receptor fluid (100 mM phosphate buffer solution plus 0.002% Tween 80).
(§6) 3.2 The plasma was put into a centrifuge tube, a working solution of a tested substance was added into the plasma, wherein a final concentration was 1 µM, and the mixture was turned upside down and mixed evenly (this step was carried out in ice bath). 20 µL of drug-containing plasma each was taken, and was respectively transferred to a 96-well sample plate according to two parts in parallel, and stored in a refrigerator at -20°C as a T0 sample.
(§7) 3.3 Another 100 µL of the above drug-containing plasma was transferred to the other side (sample compartment) of the membrane in the dialysis device according to two parts in parallel, and incubated under vibration at a constant temperature of 37°C for 6 hours. After 6 hours of incubation, 20 µL of the plasma was respectively taken out from the receptor compartment and the sample compartment after equilibration to obtain samples B and A. The samples B and A were respectively added with corresponding volumes of corresponding blank plasma or phosphate buffer solution (containing 0.002% Tween 80), so that a volume ratio of the plasma to the buffer solution in each sample well was 1: 1.
(§8) 3.4 All sample wells were added with 250 µL of methanol solution containing an internal standard, mixed evenly and then centrifuged in a centrifuge at 3800 rpm for 10 minutes. […]
(§9) A plasma protein binding rate and a recovery rate of the compound in plasma were calculated by the following formulas: dissociation percentage (%) = CB /CA; [formula] plasma protein binding rate (fb%) = 1−dissociation percentage (%); [formula] recovery rate (%) = (CB+CA)/CT0 [formula] wherein CB was a concentration of the compound in the receptor fluid after equilibrium dialysis; CA was a concentration of the compound in the drug-containing plasma after equilibrium dialysis; and CT0 was an initial concentration of the compound in plasma.

[5] = plasma protein binding rate test, equilibrium dialysis (monkey); format: in vitro ADME, cynomolgus monkey; conditions: 1 µM, 6 hours, 37°C
Method: as §4, §5, §6, §7, §8, §9

[6] = plasma protein binding rate test, equilibrium dialysis (human); format: in vitro ADME; conditions: 1 µM, 6 hours, 37°C
Method: as §4, §5, §6, §7, §8, §9

[7] = in-vivo pharmacokinetic study on SD rats, intravenous and intranasal administration; conditions: for AUC: read-out: Area under curve AUC; for half-life: read-out: Half-life period t1/2 (converted)
Method: Species: SD rats, male, SPF level.
2.1 An appropriate amount of drug was accurately weighed and added with 50 mM succinate buffer (diluted with D5W, pH=5-6), and mixed evenly and dissolved fully in an ultrasonic and vortexed mode to obtain a 0.2 mg/mL drug solution for intravenous (IV) administration.
2.2 An appropriate amount of drug was accurately weighed and added with 50 mM succinate buffer (diluted with pure water, pH=5-6), and mixed evenly and dissolved fully in an ultrasonic and vortexed mode to obtain a 10 mg/mL drug solution for intranasal (IN) administration.
5 minutes, 10 minutes, 15 minutes, 0.5 hour, 1 hour, 2 hours, 4 hours, 8 hours and 24 hours after administration.
Blood was collected through a jugular vein, about 0.2 mL of each sample was collected, EDTA-K2 was used for anticoagulation, the collected blood sample was placed on ice, and plasma was centrifugally separated within 2 hours (at 6000 g and 2-8°C for 5 minutes). The collected plasma samples were stored in a refrigerator at -80°C before analysis, and the remaining plasma samples after analysis were continuously stored in the refrigerator at -80°C for temporary storage.
A concentration of a specified compound in plasma was determined by an LC-MS/MS method, and main pharmacokinetic parameters were calculated by a Winnolin 8.3 non-compartmental model.

CGRP receptor complex = molecular target: T1, CGRP receptor complex (Homo sapiens, UniProt O60894+Q16602); assay: determination of cell functional antagonism - cAMP determination; format: cell-based
T1 construct: host or cells: SK-N-MC
T1 sequence (Q16602 23-461): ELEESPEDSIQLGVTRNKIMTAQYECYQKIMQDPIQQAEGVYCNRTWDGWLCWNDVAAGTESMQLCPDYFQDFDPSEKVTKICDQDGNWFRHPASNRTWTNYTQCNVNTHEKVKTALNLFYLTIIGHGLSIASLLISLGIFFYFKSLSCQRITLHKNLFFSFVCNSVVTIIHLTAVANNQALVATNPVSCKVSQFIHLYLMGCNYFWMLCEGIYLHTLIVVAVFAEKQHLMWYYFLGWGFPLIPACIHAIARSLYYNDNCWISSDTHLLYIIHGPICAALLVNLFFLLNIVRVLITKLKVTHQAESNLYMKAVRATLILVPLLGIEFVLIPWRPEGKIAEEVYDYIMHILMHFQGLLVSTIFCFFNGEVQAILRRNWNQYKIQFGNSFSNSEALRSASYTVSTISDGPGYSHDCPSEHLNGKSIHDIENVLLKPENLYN
T1 sequence (O60894 27-148): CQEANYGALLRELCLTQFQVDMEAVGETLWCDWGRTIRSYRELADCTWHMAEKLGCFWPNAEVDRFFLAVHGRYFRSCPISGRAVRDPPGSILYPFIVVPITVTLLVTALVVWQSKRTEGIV
Method: 1.Experimental principle A CGRP receptor complex was coupled with Gs in G protein, the combination of CGRP and CGRP receptor complex led to Gs activation, and cAMP (3',5'-cyclic adenosine monophosphate) was produced. 2.Experimental purpose The ability of the compound of the present invention to inhibit CGRP-stimulated cAMP formation in SK-N-MC cells was determined. 3.Experimental materials 3.1Experimental cell line: SK-N-MC (neuroepithelioma cells) from National Science and Technology Infrastructure - Biomedical Materials and Cell Resources. 3.2Reagents and consumables
4.Experimental steps • 4.1Cell preparation: The SK-N-MC cells were resuscitated and cultured in advance, and a cell confluence degree should be 70%-80% before use. • 4.2A sample dilution, a tested compound and α-CGRP (human) were prepared. • 4.3Cell seeding and drug effect: The SK-N-MC cells were digested, centrifuged, then resuspended with the sample dilution, and inoculated into a 384-well plate. Each well was added with the α-CGRP (human) and the tested compound respectively, and blown and mixed evenly. The well plate was adhered with a sealing film, and placed on an enzyme-labeled incubator to incubate at 25°C. • 4.4cAMP determination: carried out according to LANCE Ultra cAMP Kit specification Eu-cAMP tracer and ULight-anti-cAMP working solutions were prepared in the dark, respectively added into the well plate, and blown and mixed evenly.

[8] = male, rat, plasma, other: intranasal, IN@2 mg/kg
[9] = inhibition of CGRP-stimulated cAMP formation in SK-N-MC cells, read-out: IC50

**Q.** With Cc1cc(C[C@@H](NC(=O)N2CCC(c3cc4c([nH]c3=O)SCC4)CC2)C(=O)N2CCN(C3CCN(C)CC3)CC2)cc2cn[nH]c12 [Example 8, (R)-N-(3-(7-methyl-1H-indazole-5-yl)-1-(4-(1-methylpiperidine-4-yl)piperazine-1-yl)-1-oxopropan-2-yl)-4-(6-oxo-2,3,6,7-tetrahydrothieno[2,3-b]pyridine-5-yl)piperidine-1-formamide] as the compound, how does the half-life at 1 µM ([1]; 1.0 µM) read?
**A.** > 2 h

**Q.** And the microsomal CLint at 1 µM ([1]; 1.0 µM)?
**A.** 1.6 µL/min/mg

**Q.** And the “% remaining (60 min)” value [1]?
**A.** 90.7%

**Q.** What about the half-life at 1 µM ([2]; 1.0 µM) of the same compound?
**A.** 1.48 h

**Q.** And the microsomal CLint at 1 µM ([2]; 1.0 µM)?
**A.** 15.6 µL/min/mg

**Q.** What about the “% remaining (60 min)” value [2] of the same compound?
**A.** 61.6%

**Q.** And the half-life at 1 µM ([3]; 1.0 µM)?
**A.** > 2 h

**Q.** What about the microsomal CLint at 1 µM ([3]; 1.0 µM) of the same compound?
**A.** 3.2 µL/min/mg

**Q.** What about the “% remaining (60 min)” value [3] of the same compound?
**A.** 85.8%

**Q.** And the “fb (%)” value [4]?
**A.** 69.4%

**Q.** And the “fb (%)” value [5]?
**A.** 47.7%

**Q.** What about the “fb (%)” value [6] of the same compound?
**A.** 64.1%

**Q.** And the “Apparent clearance CL” value ([7]; IV@1 mg/kg)?
**A.** 5.94 mL/min/kg

**Q.** What about the AUC ([7]; male, rat, plasma, IV@1 mg/kg) of the same compound?
**A.** 2850 ng·h/mL

**Q.** What about the half-life ([7]; male, rat, plasma, IV@1 mg/kg) of the same compound?
**A.** 7.58 h

**Q.** And the Vd ([7]; male, rat, plasma, IV@1 mg/kg, read-out: Volume of distribution steady-state Vss)?
**A.** 0.5 L/kg

**Q.** And the AUC [7, 8]?
**A.** 626 ng·h/mL

**Q.** And the bioavailability ([7]; male, rat, plasma, other: intranasal, IN@2 mg/kg, read-out: Bioavailability F%)?
**A.** 11%

**Q.** What about the Cmax ([7]; male, rat, plasma, other: intranasal, IN@2 mg/kg, read-out: Concentration to peak Cmax) of the same compound?
**A.** 204 ng/mL

**Q.** What about the half-life [7, 8] of the same compound?
**A.** 3.41 h

**Q.** With [2H]C([2H])([2H])N1CCC(N2CCN(C(=O)[C@@H](Cc3cc(C)c4[nH]ncc4c3)NC(=O)N3CCC(c4cc5c([nH]c4=O)SCC5)CC3)CC2)CC1 [Example 29, (R)-N-(3-(7-methyl-1H-indazole-5-yl)-1-(4-(1-(methyl-d3)piperidine-4-yl)piperazine-1-yl)-1-oxopropan-2-yl)-4-(6-oxo-2,3,6,7-tetrahydrothieno[2,3-b]pyridine-5-yl)piperidine-1-formamide] as the compound, how does the “% remaining (60 min)” value [1] read?
**A.** 105%

**Q.** What about the “% remaining (60 min)” value [2] of the same compound?
**A.** 98.9%

**Q.** And the “% remaining (60 min)” value [3]?
**A.** 115%

**Q.** And the “fb (%)” value [4]?
**A.** 64.3%

**Q.** What about the “fb (%)” value [5] of the same compound?
**A.** 56.1%

**Q.** What about the “fb (%)” value [6] of the same compound?
**A.** 50.2%

**Q.** For Cc1cc(C[C@@H](NC(=O)N2CCC(c3cc4c([nH]c3=O)SCC3CC43)CC2)C(=O)N2CCN(C3CCN(C)CC3)CC2)cc2cn[nH]c12 (stereo partly drawn) [Example 47, N-((R)-3-(7-methyl-1H-indazole-5-yl)-1-(4-(1-methylpiperidine-4-yl)piperazine-1-yl)-1-oxopropan-2-yl)-4-(5-oxo-1,1a,2,4,5,7b-hexahydrocyclopropo[4,5]thiopyrano[2,3-b]pyridine-6-yl)piperidine-1-formamide], which IC50 (CGRP receptor complex) is on record?
**A.** 0.24 nM

**Q.** For Cc1cc(CC(OC(=O)N2CCC(c3cc4c([nH]c3=O)SCCC4)CC2)C(=O)N2CCN(C3CCN(C)CC3)CC2)cc2cn[nH]c12 (stereo not drawn) [Example 41], which IC50 (CGRP receptor complex) is on record?
**A.** 0.38 nM

**Q.** For Cc1cc(CC(CC(=O)N2CCC(c3cc4c([nH]c3=O)SCCC4)CC2)C(=O)N2CCN(C3CCN(C)CC3)CC2)cc2cn[nH]c12 (stereo not drawn) [Example 27, 2-((7-methyl-1H-indazole-5-yl)methyl)-1-(4-(1-methylpiperidine-4-yl)piperazine-1-yl)-4-(4-(7-oxo-3,4,7,8-tetrahydro-2H-thiopyrano[2,3-b]pyridine-6-yl)piperidine-1-yl)butane-1,4-dione], which IC50 (CGRP receptor complex; [9]) is on record?
**A.** 1.24 nM

**Q.** Which IC50 (CGRP receptor complex) does the source give for Cc1cc(C[C@@H](NC(=O)N2CCC(c3cc4c([nH]c3=O)[S+]([O-])CC4)CC2)C(=O)N2CCN(C3CCN(C)CC3)CC2)cc2cn[nH]c12 (stereo partly drawn) [Example 35, N-((R)-3-(7-methyl-1H-indazole-5-yl)-1-(4-(1-methylpiperidine-4-yl)piperazine-1-yl)-1-oxopropan-2-yl)-4-(1-oxidation-6-oxo-2,3,6,7-tetrahydrothieno[2,3-b]pyridine-5-yl)piperidine-1-formamide] here?
**A.** 0.69 nM

**Q.** With Cc1cc(C[C@@H](NC(=O)N2CCC(c3cc4c([nH]c3=O)SCC4)CC2)C(=O)N2CCC(N3CCN(C)CC3)CC2)cc2cn[nH]c12 [Example 19, (R)-N-(3-(7-methyl-1H-indazole-5-yl)-1-(4-(4-methylpiperazine-1-yl)piperidine-1-yl)-1-oxopropan-2-yl)-4-(6-oxo-2,3,6,7-tetrahydrothieno[2,3-b]pyridine-5-yl)piperidine-1-formamide] as the compound, how does the IC50 (CGRP receptor complex; [9]) read?
**A.** 0.39 nM

**Q.** For Cc1cc(CC(CC(=O)N2CCC(c3cc4c([nH]c3=O)SCC4)CC2)C(=O)N2CCN(C3CCN(C)CC3)CC2)cc2cn[nH]c12 (stereo not drawn) [Example 31, 2-((7-methyl-1H-indazole-5-yl)methyl)-1-(4-(1-methylpiperidine-4-yl)piperazine-1-yl)-4-(4-(6-oxo-2,3,6,7-tetrahydrothieno[2,3-b]pyridine-5-yl)piperidine-1-yl)butane-1,4-dione], which IC50 (CGRP receptor complex; [9]) is on record?
**A.** 2.05 nM

**Q.** With Cc1cc(C[C@@H](NC(=O)N2CCC(c3cc4c([nH]c3=O)SCCC4)CC2)C(=O)N2CCC(N3CCCCC3)CC2)cc2cn[nH]c12 [Example 26, (R)-N-(1-([1,4'-bipiperidine]-1'-yl)-3-(7-methyl-1H-indazole-5-yl)-1-oxopropan-2-yl)-4-(7-oxo-3,4,7,8-tetrahydro-2H-thiopyrano[2,3-b]pyridine-6-yl)piperidine-1-formamide] as the compound, how does the IC50 (CGRP receptor complex; [9]) read?
**A.** 0.1 nM
